How the values were obtained:
MLL-AF9 LSC = experiment: C57Bl6 mice transplanted with pretreated MLL-AF9 LSC, PARPi and GSK3i treatment; format: in vivo, mouse
Description: For mouse MLL-AF9 LSC in vivo studies involving PARPi and GSK3i, MLL-AF9 LSC were pretreated in R20/20 with 4 mM LiCl or 1 uM Olaparib or combination for 3 days. Equal number 0.2×10^6 of live cells were transplanted into sublethally irradiated C57Bl6 mice. Continuous Olaparib and LiCO3 treatment was commenced on the day after irradiation and injection of cells. Mice were given 0.4% lithium carbonate containing diet (Harlan Laboratory) along with Olaparib by IP every other day for 4 weeks. The engraftment of mouse donor cells was defined as CD45.1+/CD45.2− by FACS.

[1] = test system: normal mouse bone marrow c-Kit+ cells; experiment: Dose-response titration on normal bone marrow cells in methylcellulose; format: cell-based; settings: undetectable/minimal effects on normal primary bone marrow cells
Description: Colonies were scored 6-7 days after plating. For other in vitro studies, mouse leukemic cells and primary AML cell lines were subjected to continuously Olaparib (1 μM) or LiCl (8 mM) treatment in liquid culture for whole duration as indicated in the figures or figure legends. For human leukemic cell lines, experiments were performed as described above with 5 μM Olaparib.

[2] = test system: MLL-AF9 Hoxa9−/− transformed cells; experiment: In vitro PARPi treatment of MLL-AF9 transformed cells from Hoxa9−/− background; format: cell-based, mouse
Description: Transduction using concentrated viral supernatant expressing the oncogene of interest was carried out by centrifugation (spinoculation) at 800 g at 32° C. for 2 hours in the presence of 5 μg ml^-1 polybrene (Sigma-Aldrich). Cells were subsequently plated in 1% methylcellulose medium ([…]; Stem Cell Technologies) containing 20 ngml^-1 SCF, 10 ngml^-1 IL-3, 10 ngml^-1 IL-6 and 10 ngml^-1 granulocyte macrophage colony-stimulating factor (GM-CSF) and appropriate selection antibiotic. Colonies were counted after 7 days of culture and replated every 6-7 days at 5×103-1.5×10^4 cell density. Re-plating was performed weekly to generate primary cell lines for further analysis. After the third or fourth round of plating, cells were cultured in R20/20 medium (RPMI 1640, 20% FCS, 20% WEHI-conditioned medium, 2 mM L-glutamine, 100 U/ml penicillin, and 100 μg/ml streptomycin) supplemented with 20 ngml^-1 stem cell factor (SCF), 10 ngml^-1 interleukin (IL)-3, and 10 ngml^-1 IL-6 to establish cell lines. All recombinant murine cytokines were from PeprotechEC. […] Colonies were scored 6-7 days after plating. […] Cells were counted in at least 5 fields for each slide, for a total of over 100 cells. The percentage of senescent cells was calculated by the percentage of the number of blue cell in the field.

[3] = C57Bl6 mice, MLL-AF9 wild-type leukemia, cells pre-treated 3 days, then in vivo treatment 4 weeks

O=C(c1cc(Cc2n[nH]c(=O)c3ccccc23)ccc1F)N1CCN(C(=O)C2CC2)CC1 [Olaparib, 4-[(3-[(4-cyclopropylcarbonyl)piperazin-4-yl]carbonyl)-4-fluorophenyl]methyl(2H)-phthalazin-1-one]
BM Engraftment (%) (MLL-AF9 LSC; [3]): 80.23 ± 23.70% | Disease Latency (days; median) (MLL-AF9 LSC; [3]): 45.8 days | Hematopoietic Liver Engraftment (%) (MLL-AF9 LSC; [3]): 76.5 ± 19.21% | Hematopoietic Spleen Engraftment (%) (MLL-AF9 LSC; [3]): 65.07 ± 43.46% | Liver (MLL-AF9 LSC; [3]): 2.868 ± 0.4089 g | Spleen (MLL-AF9 LSC; [3]): 1.218 ± 0.3266 g | survival (MLL-AF9 LSC; pretreated MLL LSC in syngeneic mice, 80 days of observation, controls succumbed within 8 weeks): did not significantly extend the survival | in vitro maximal tolerable dose [1]: up to 1 uM | senescence (β-galactosidase staining) ([2]; 48 hrs PARPi treatment): induction of senescence | colony forming ability and differentiation ([2]; seven days in methylcellulose with PARPi): significant suppression of colony forming ability and differentiation
